Assay results reported in patent publication US11478551B2, “Long-acting adrenomedullin derivative” (University of Miyazaki, priority 2015, dated 2022).

Tested on: vascular occlusion model rats
Test: Vascular occlusion model, Morris water maze test
Assay type: in vivo
Conditions: 1 and 10 nmol/kg subcutaneous, rat
Description: Physiological saline was administered as a vehicle to a control group. Then, the bilateral vertebral arteries were permanently occluded under anesthesia. On the next day, the bilateral common carotid arteries were occluded for 30 minutes under anesthesia using a suture thread. Then, the suture thread was removed, and blood flow was restarted. The date of the bilateral common carotid artery occlusion was defined as the date of the vascular occlusion model preparation, i.e., day 0. 9 days after the model preparation, the rat was caused to swim in the Morris water maze in one trial (training). The hidden platform test was conducted at intervals of 4 trials/day for 5 days from 10 days after the model preparation. On the fifth day of the hidden platform test (14 days after the model preparation), the probe test was conducted 1 hour after the final trial.
The Morris water maze test was conducted using an experimental apparatus described below. A round pool having a diameter of 150 cm, a height of 45 cm, and a water depth of 30 cm was provided. A clear colorless platform having a diameter of 12 cm was positioned approximately 1 cm below the water surface in the round pool. The water temperature of the round pool was set to 23±1° C. Indirect lighting was disposed within the room having the experimental apparatus placed therein, and visual cues (calendar, ball, cube and striped sheet) for the animals were arranged therein. In the test period, this arrangement was always constant. A video tracking system (Smart, Panlab, S.L.U.) was used in measurement.
The hidden platform test was conducted by procedures described below. […] The swimming time to arrive at the platform from the start (escape latency) was measured. […]
The probe test was conducted by procedures described below. […], the swimming time in a zone having the platform placed therein was measured. The stay rate (%) was calculated according to an expression given below using the measured swimming time. […]

Substance: GL-2-branched CH3O-PEG (60k)-CH2-^αNH-(h.AM (1-52)) [Compound (8)]
- death rate associated with the operation for the bilateral common carotid artery occlusion: no significant difference
- escape latency in the hidden platform test as compared to the vehicle control group: shortened
- stay rate in the probe test as compared to the vehicle control group: significantly increased
